Measurements as given in the supplement of paper PMC8967900.

System: 380
Assay: selective drug sensitivity score (sDSS, relative to normal bone marrow) (sDSS (score)); higher = more potent and effective on the cell line relative to normal bone marrow cells
Settings: 72 h
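Note: ALL cell lines in 384-well plates, five doses spanning 10,000-fold, each plate scaled between vehicle and 100 µmol/L benzalkonium chloride controls, sDSS an adapted area-under-curve metric.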

SMILES	selective drug sensitivity score
CC(C)(C)c1cnc(CSc2cnc(NC(=O)C3CCNCC3)s2)o1 [SNS-032] (top concentration 10000 nM)	-6.64
Cn1cncc1[C@@](N)(c1ccc(Cl)cc1)c1ccc2c(c1)c(-c1cccc(Cl)c1)cc(=O)n2C [Tipifarnib] (top concentration 10000 nM)	9.2
COc1ccccc1S(=O)(=O)Nc1ccc2c(c1)CN(C)C(=O)N2 [PFI-1] (top concentration 30000 nM)	0.1
Cc1cn(-c2cc(NC(=O)c3ccc(C)c(Nc4nccc(-c5cnccn5)n4)c3)cc(C(F)(F)F)c2)cn1 [Radotinib] (top concentration 10000 nM)	1.8
CC[C@H](Nc1ncnc2[nH]cnc12)c1nc2cccc(F)c2c(=O)n1-c1ccccc1 [Idelalisib] (top concentration 10000 nM)	5.74
Cc1noc2c1-c1ccccc1C(c1ccc(Cl)cc1)=N[C@H]2CC(N)=O [CPI-0610] (top concentration 10000 nM)	1.7
C=C(c1ccc(C(=O)O)cc1)c1cc2c(cc1C)C(C)(C)CCC2(C)C [Bexarotene] (top concentration 10000 nM)	24
CC1(COc2ccc3c(c2)ncn3-c2ccc3cccc(N4CCC(N)CC4)c3n2)COC1 [Crenolanib] (top concentration 10000 nM)	2.08
O=C(Nc1cc(Oc2cc(F)c(NC(=O)C3(C(=O)Nc4ccc(F)cc4)CC3)cc2F)ccn1)C1CC1 [Altiratinib] (top concentration 10000 nM)	-0.86
O=C(Nc1ccncc1)C(=O)c1cn(Cc2ccc(Cl)cc2)c2ccccc12 [Indibulin] (top concentration 10000 nM)	8.74
Cc1ncc(-c2ccnc(Nc3ccc(S(C)(=O)=O)cc3)n2)n1C(C)C [AZD-5438] (top concentration 10000 nM)	-7.56
NC[C@@](O)(c1ccc(Cl)cc1)c1ccc(-c2cn[nH]c2)cc1 (top concentration 10000 nM)	13.9
Cn1c(Nc2ccc(C(F)(F)F)cc2)nc2cc(Oc3ccnc(-c4ncc(C(F)(F)F)[nH]4)c3)ccc21 [NVP-RAF265] (top concentration 1000 nM)	2.68
CNCc1ccc(-c2[nH]c3cc(F)cc4c3c2CCNC4=O)cc1 [Rucaparib] (top concentration 10000 nM)	11.5
O=C(CCCCCCC(=O)Nc1ccc([C@H]2O[C@@H](CSc3nc(-c4ccccc4)c(-c4ccccc4)o3)C[C@@H](c3ccc(CO)cc3)O2)cc1)NO [Tubacin] (top concentration 10000 nM)	20.4
N#CCNC(=O)c1ccc(-c2ccnc(Nc3ccc(N4CCOCC4)cc3)n2)cc1 [Momelotinib] (top concentration 10000 nM)	-9.62
Nc1cccc2c1CN(C1CCC(=O)NC1=O)C2=O (stereo not given) [Lenalidomide] (top concentration 100000 nM)	1.62
CCN1CCN(Cc2ccc(Nc3ncc(F)c(-c4cc(F)c5nc(C)n(C(C)C)c5c4)n3)nc2)CC1 [Abemaciclib] (top concentration 2500 nM)	-6.86

System: ALL-PO
Assay: as above
Settings: 72 h

SMILES	selective drug sensitivity score
CC(C)(C)c1cnc(CSc2cnc(NC(=O)C3CCNCC3)s2)o1 [SNS-032] (top concentration 10000 nM)	-6.74
Cn1cncc1[C@@](N)(c1ccc(Cl)cc1)c1ccc2c(c1)c(-c1cccc(Cl)c1)cc(=O)n2C [Tipifarnib] (top concentration 10000 nM)	9
COc1ccccc1S(=O)(=O)Nc1ccc2c(c1)CN(C)C(=O)N2 [PFI-1] (top concentration 30000 nM)	2.7
Cc1cn(-c2cc(NC(=O)c3ccc(C)c(Nc4nccc(-c5cnccn5)n4)c3)cc(C(F)(F)F)c2)cn1 [Radotinib] (top concentration 10000 nM)	3.7
CC[C@H](Nc1ncnc2[nH]cnc12)c1nc2cccc(F)c2c(=O)n1-c1ccccc1 [Idelalisib] (top concentration 10000 nM)	-1.06
Cc1noc2c1-c1ccccc1C(c1ccc(Cl)cc1)=N[C@H]2CC(N)=O [CPI-0610] (top concentration 10000 nM)	7.9
C=C(c1ccc(C(=O)O)cc1)c1cc2c(cc1C)C(C)(C)CCC2(C)C [Bexarotene] (top concentration 10000 nM)	3.7
CC1(COc2ccc3c(c2)ncn3-c2ccc3cccc(N4CCC(N)CC4)c3n2)COC1 [Crenolanib] (top concentration 10000 nM)	7.78
O=C(Nc1cc(Oc2cc(F)c(NC(=O)C3(C(=O)Nc4ccc(F)cc4)CC3)cc2F)ccn1)C1CC1 [Altiratinib] (top concentration 10000 nM)	8.94
O=C(Nc1ccncc1)C(=O)c1cn(Cc2ccc(Cl)cc2)c2ccccc12 [Indibulin] (top concentration 10000 nM)	12.7
Cc1ncc(-c2ccnc(Nc3ccc(S(C)(=O)=O)cc3)n2)n1C(C)C [AZD-5438] (top concentration 10000 nM)	-6.06
NC[C@@](O)(c1ccc(Cl)cc1)c1ccc(-c2cn[nH]c2)cc1 (top concentration 10000 nM)	3.98
Cn1c(Nc2ccc(C(F)(F)F)cc2)nc2cc(Oc3ccnc(-c4ncc(C(F)(F)F)[nH]4)c3)ccc21 [NVP-RAF265] (top concentration 1000 nM)	6.68
CNCc1ccc(-c2[nH]c3cc(F)cc4c3c2CCNC4=O)cc1 [Rucaparib] (top concentration 10000 nM)	-0.58
O=C(CCCCCCC(=O)Nc1ccc([C@H]2O[C@@H](CSc3nc(-c4ccccc4)c(-c4ccccc4)o3)C[C@@H](c3ccc(CO)cc3)O2)cc1)NO [Tubacin] (top concentration 10000 nM)	5.74
N#CCNC(=O)c1ccc(-c2ccnc(Nc3ccc(N4CCOCC4)cc3)n2)cc1 [Momelotinib] (top concentration 10000 nM)	2.48
Nc1cccc2c1CN(C1CCC(=O)NC1=O)C2=O (stereo not given) [Lenalidomide] (top concentration 100000 nM)	-2.28
CCN1CCN(Cc2ccc(Nc3ncc(F)c(-c4cc(F)c5nc(C)n(C(C)C)c5c4)n3)nc2)CC1 [Abemaciclib] (top concentration 2500 nM)	-3.36

System: ALL-SIL
Assay: as above
Settings: 72 h

SMILES	selective drug sensitivity score
CC(C)(C)c1cnc(CSc2cnc(NC(=O)C3CCNCC3)s2)o1 [SNS-032] (top concentration 10000 nM)	-3.84
Cn1cncc1[C@@](N)(c1ccc(Cl)cc1)c1ccc2c(c1)c(-c1cccc(Cl)c1)cc(=O)n2C [Tipifarnib] (top concentration 10000 nM)	11.1
COc1ccccc1S(=O)(=O)Nc1ccc2c(c1)CN(C)C(=O)N2 [PFI-1] (top concentration 30000 nM)	2
Cc1cn(-c2cc(NC(=O)c3ccc(C)c(Nc4nccc(-c5cnccn5)n4)c3)cc(C(F)(F)F)c2)cn1 [Radotinib] (top concentration 10000 nM)	43.3
CC[C@H](Nc1ncnc2[nH]cnc12)c1nc2cccc(F)c2c(=O)n1-c1ccccc1 [Idelalisib] (top concentration 10000 nM)	0.04
Cc1noc2c1-c1ccccc1C(c1ccc(Cl)cc1)=N[C@H]2CC(N)=O [CPI-0610] (top concentration 10000 nM)	-0.6
C=C(c1ccc(C(=O)O)cc1)c1cc2c(cc1C)C(C)(C)CCC2(C)C [Bexarotene] (top concentration 10000 nM)	-4.2
CC1(COc2ccc3c(c2)ncn3-c2ccc3cccc(N4CCC(N)CC4)c3n2)COC1 [Crenolanib] (top concentration 10000 nM)	0.28
O=C(Nc1cc(Oc2cc(F)c(NC(=O)C3(C(=O)Nc4ccc(F)cc4)CC3)cc2F)ccn1)C1CC1 [Altiratinib] (top concentration 10000 nM)	13.9
